Reference: paper PMC12420824, “Discovery of a selective alpha-kinase 1 inhibitor for the rare genetic disease ROSAH syndrome” (Nature Communications, 2025)
Where “and” joins values, the source holds several entries; their conditions need not be identical. Equal entries are not always repeated.

Columns and labels:
full-length ALPK1 [1] = biological target: T1, full-length ALPK1 (Homo sapiens, UniProt Q96QP1); experiment: Thermal shift assay (TSA); assay type: binding; conditions: for TSA Tm Increase: compound at 10 μM; for increase in melting temperature (Tm): pilot TSA screen / assay validation
T1 construct: recombinant full-length ALPK1 kinase purified from Sf9 cells; 3xFlag (C); made in house; host or cells: Sf9 insect cells (baculovirus, pFAST-BAC)
Procedure: A small molecule library containing ~160,000 compounds (HTS Diversity V2) was prepared by WuXi AppTec (Shanghai, China) in 384 well thin-wall qPCR plates, with 20 nL of 10 mM compound preparations in each well. On each screening plate, 2 columns of wells were loaded with 20 nL of pure DMSO to leave spaces for negative controls (no compounds) and the positive control (AS-252424). […] The mixture was spun down at 1000 rpm for 1 min, then immediately applied to a protein melting reaction on a Roche LightCycler® 480 II Real-time PCR system, heating the mixture from 30 °C to 50 °C at the ramp rate of 0.02 °C/s while continuously acquiring the fluorescence signal. The melting temperature (Tm) of the ALPK1 protein with or without each compound was calculated using the Protein Thermal Shift™ Analysis Desktop Software v1.2 (Thermo Fisher Scientific). For positive control wells, 40 μM AS-252424 in 5 μl compound solvent was added manually and used as a positive control in the thermal shift screening.

full-length ALPK1 [2] = biological target: T1, full-length ALPK1; experiment: Surface plasmon resonance (SPR); assay type: binding; conditions: with 500 nM ADP-L-heptose
Procedure: SPR assays were conducted on a Biacore 8 K (Cytiva). […] For analyte testing, flow rates were maintained at 30 µL/min. […] The data collection rate was 10 Hz, and all data were double referenced and solvent corrected. Analysis was performed using Biacore Insight Evaluation software version 5. The 1:1 kinetic binding affinity models were used to fit the data, and all parameters were fitted globally.

[3] = system: HEK-293 cells transfected with GFP-TIFA; experiment: DF-006-induced TIFAsome formation; conditions: 1 μM DF-006 alone
ALPK1 [4] = biological target: T2, ALPK1 (Homo sapiens, UniProt Q96QP1); experiment: Western blotting-based in vitro kinase assay; assay type: biochemical; conditions: 20 µM
Procedure: Compounds were tested at a single final concentration of 20 μM in an in vitro kinase assay including 30 nM recombinant ALPK1 (purified from 293-F cells stimulated with 4% s.t. lysate 4 h before cell lysis) and 1.6 μM His-tagged TIFA in a 20 µl volume. […] An in vitro kinase reaction was conducted at 27 °C for 40 min in the following buffer: 20 mM HEPES pH 7.0, 1 mM TCEP, 10 mM MgCl2, 0.1 mM Na3VO4, 0.6 μM BSA, 5% DMSO and 25 μM ATP. […] After these in vitro kinase reactions, the kinase-substrate mix was fractionated by electrophoresis on denaturing SDS-PAGE gels and transferred to Immobilon-P PVDF membranes (Millipore, MA, USA). Membranes were blocked with 5% milk in TBS with 0.1% Triton-X100. Phosphorylated TIFA were detected by incubating the membrane with an anti-phospho-threonine (#9386, Cell Signaling Technology, Danvers, MA, USA) antibody. […]
compounds used in the Western blotting to measure the ability of compounds to inhibit the ALPK1-mediated phosphorylation of TIFA. (b) Example of the biochemical approach to validate hits from the thermal shift assay screen. ALPK1 binding compounds were tested in triplicate in an in vitro kinase assay at a final concentration of 20 µM, and the inhibitory effect was evaluated by comparing the phosphorylated TIFA level to that for the no compound control after the kinase reaction by Western blotting.
Phosphorylated TIFA was detected using an anti-phospho-theronine antibody. ALPK1 binders fell into three categories: inhibitors (e.g. WXHTS0017849, WXHTS WXHTS0037341), activators (e.g.
WXHTS0086594), and those with no effect (e.g. WXHTS0035788). […]

ALPK1 [5] = biological target: T2, ALPK1; experiment: biochemical
ROSAH patients = ROSAH patients ref 3; cited from earlier work

T1 sequence (Q96QP1 whole entry): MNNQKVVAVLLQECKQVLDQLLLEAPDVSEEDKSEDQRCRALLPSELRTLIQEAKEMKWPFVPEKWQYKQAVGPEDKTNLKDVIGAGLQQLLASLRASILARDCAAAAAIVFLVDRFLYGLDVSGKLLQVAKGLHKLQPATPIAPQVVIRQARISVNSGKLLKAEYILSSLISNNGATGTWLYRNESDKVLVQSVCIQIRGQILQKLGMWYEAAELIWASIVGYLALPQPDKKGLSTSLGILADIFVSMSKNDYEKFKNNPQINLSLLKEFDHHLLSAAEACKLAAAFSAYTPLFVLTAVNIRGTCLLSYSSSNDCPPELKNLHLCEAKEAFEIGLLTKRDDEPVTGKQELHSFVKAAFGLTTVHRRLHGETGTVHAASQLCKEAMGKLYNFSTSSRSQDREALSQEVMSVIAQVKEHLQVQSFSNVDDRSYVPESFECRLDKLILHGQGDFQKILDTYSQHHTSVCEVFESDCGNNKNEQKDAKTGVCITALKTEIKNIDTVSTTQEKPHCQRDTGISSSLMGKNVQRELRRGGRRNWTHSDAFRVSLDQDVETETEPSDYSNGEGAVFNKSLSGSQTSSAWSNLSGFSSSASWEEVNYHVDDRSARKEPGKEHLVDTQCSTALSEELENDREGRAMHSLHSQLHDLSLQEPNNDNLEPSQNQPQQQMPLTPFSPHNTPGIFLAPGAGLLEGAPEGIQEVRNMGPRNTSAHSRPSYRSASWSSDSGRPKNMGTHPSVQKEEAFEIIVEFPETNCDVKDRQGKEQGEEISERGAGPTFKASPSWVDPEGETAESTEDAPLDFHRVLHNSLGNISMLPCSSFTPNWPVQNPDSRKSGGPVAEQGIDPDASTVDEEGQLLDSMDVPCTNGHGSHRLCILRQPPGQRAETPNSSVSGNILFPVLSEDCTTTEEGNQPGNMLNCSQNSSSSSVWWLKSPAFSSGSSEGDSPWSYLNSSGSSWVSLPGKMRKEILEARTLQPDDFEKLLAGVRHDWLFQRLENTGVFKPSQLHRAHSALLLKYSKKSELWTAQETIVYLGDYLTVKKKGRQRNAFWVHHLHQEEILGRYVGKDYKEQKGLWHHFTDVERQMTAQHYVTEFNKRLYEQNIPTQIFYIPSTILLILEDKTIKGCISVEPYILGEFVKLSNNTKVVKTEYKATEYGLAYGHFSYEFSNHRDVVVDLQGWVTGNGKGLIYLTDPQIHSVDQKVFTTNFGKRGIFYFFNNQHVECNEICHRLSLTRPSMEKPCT
T2 sequence (Q96QP1 whole entry): as above

TSA Tm Increase (full-length ALPK1 [1]) [°C] | Kd (full-length ALPK1 [2]) [µM] | effect on ALPK1-mediated TIFA phosphorylation (ALPK1 [4]) | Compound | also measured
3.4 | 1 | – | O=C1NC(=O)/C(=C/c2ccc(-c3ccc(F)cc3O)o2)S1 [AS-252424] | increase in melting temperature (Tm) (full-length ALPK1 [1]): 3.4 °C
– | – | – | Nc1ncnc2c1ncn2[C@@H]1O[C@H](COP(=O)(O)OP(=O)(O)OP(=O)(O)O)[C@@H](O)[C@H]1O [ATP] | increase in melting temperature (Tm) (full-length ALPK1 [1]): 1.1 °C
– | – | – | CC(=O)OCC(F)C1OC(OP(=O)(O)OP(O)(=S)OCC2OC(n3cnc4c(N)ncnc43)C(O)C2O)C(OC(C)=O)C(OC(C)=O)C1OC(C)=O [DF-006, D-glycero-D-manno-6-fluoro-2,3,4,7-Ac-heptose-1β-S-ADP, reference compound] | Cells with TIFAsomes /GFP positive cells (%) [3]: 50.51% and 61.9% and 51.29% and 50.95% and 60.98%
3.6 | 10 | inhibit ALPK1 activity | CC1=NN(c2ccc(C)c(C)c2)C(=O)/C1=N\Nc1cccc(-c2cccc(C(=O)O)c2)c1O [Eltrombopag] | IC50 (ALPK1 [5]): 7.6 µM
1.8 | 7 | – | O=C(O)c1cccnc1Nc1cccc(C(F)(F)F)c1 [Niflumic acid] | –
2.0 | 281 | – | O=C(O)c1cc(/N=N/c2ccc(S(=O)(=O)Nc3ccccn3)cc2)ccc1O [Sulfasalazine] | –
3.4 | 265 | – | Brc1c(Br)c(Br)c2n[nH]nc2c1Br [Tbb] | –
2.2 | 97 | inhibit ALPK1 activity | Cc1ccc(C(=O)c2cc(O)c(O)c([N+](=O)[O-])c2)cc1 [Tolcapone] | –
– | – | inhibitors | Nc1c(-c2ccncc2)sc2nc(-c3cccs3)ccc12 [WXHTS0017849] | –
– | – | inhibitors | Nc1nc(C2(c3ccccc3)CCCC2)cs1 [WXHTS0037341] | –
– | – | activators | Cc1ccc(NC(=O)NCC(O)c2ccc(F)cc2F)cc1Cl (stereo not drawn) [WXHTS0086594] | –
– | – | – | tocilizumab: anti-IL-6 drug given off-label to ROSAH patients | intraocular inflammation (ROSAH patients): improved intraocular inflammation (two of two patients)

Compound | TSA Tm Increase (full-length ALPK1 [1]) [°C] | Kd (full-length ALPK1 [2]) [µM] | effect on ALPK1-mediated TIFA phosphorylation (ALPK1 [4]) | also measured
CO[C@@H]1[C@@H](OC(N)=O)[C@@H](O)[C@H](Oc2ccc3c(O)c(NC(=O)c4ccc(O)c(CC=C(C)C)c4)c(=O)oc3c2C)OC1(C)C [Novobiocin] | 1.4 | – | – | –
CC(=O)Oc1ccccc1-c1cccc(Cn2cccc(C(=O)Nc3ccc(-c4ccccc4)cc3)c2=O)c1 [WXHTS0035788] | – | – | no effect | –
